The term solubility (thermodynamic) denotes the concentration in solution at equilibrium with solid. As a reminder, the Cmax is the peak of the concentration-time curve. By bioavailability is commonly meant dose-corrected exposure relative to a reference, in per cent. Read a low bioavailability as little systemic uptake. Usually AUC(0-inf) stands for the area under the concentration-time curve extrapolated to infinity. Low readings indicate low exposure, high ones high exposure. As a reminder, the Tmax is the time at which the peak concentration occurs. The term AUC denotes the area under the concentration-time curve, a measure of exposure.

Series [1] can be described thus: Equilibrium solubility in 0.5% methylcellulose/2% Tween-80 in water. It counts as physicochemical.
Series [2] is described as follows: Cmax in C57 mouse at 3 mg/kg, po. Type of series: ADME, organism-based. More on the design: dose 3 mg/kg, route oral. Conditions: in vivo.
Series [3] is described as follows: Oral bioavailability in Sprague-Dawley rat 3 mg/kg. It counts as ADME, organism-based. Conditions: in vivo.
Series [4] in a line: AUC (0 to infinity) in C57 mouse at 3 mg/kg, po. Type of series: ADME, organism-based. Conditions: plasma. More on the design: time infinity, dose 3 mg/kg, route oral.
Series [5] is described as follows: Cmax in Sprague-Dawley rat at 3 mg/kg, po. Type of series: ADME, organism-based. Also on record: dose 3 mg/kg, route oral. Conditions: in vivo.
Series [6] can be described thus: AUC (0 to infinity) in C57 mouse at 3 mg/kg, iv. It counts as ADME, organism-based. Also on record: time infinity, dose 3 mg/kg, route intravenous. Conditions: plasma.
The nature of series [7]: Tmax in Sprague-Dawley rat 3 mg/kg, po. Type of series: ADME, organism-based. Also on record: dose 3 mg/kg, route oral. Conditions: in vivo.
Series [8] can be described thus: (§1) AUC (0 to infinity) in Sprague-Dawley rat at 3 mg/kg, iv. It counts as ADME, organism-based, Plasma. Also on record: time infinity, dose 3 mg/kg, route intravenous. Conditions: Sprague-Dawley, plasma.
The nature of series [9]: Tmax in C57 mouse at 3 mg/kg, po. It counts as ADME, organism-based. More on the design: dose 3 mg/kg, route oral. Conditions: in vivo.
Series [10] is described as follows: AUC (0 to infinity) in Sprague-Dawley rat at 3 mg/kg, po. Type of series: ADME, organism-based. Also on record: time infinity, dose 3 mg/kg, route oral. Conditions: plasma.
A short description of series [11]: Tmax in C57 mouse at 30 mg/kg, po. Type of series: ADME, organism-based. More on the design: dose 30 mg/kg, route oral. Conditions: in vivo.
Series [12] in a line: AUC (0 to infinity) in C57 mouse at 30 mg/kg, po. It counts as ADME, organism-based. Also on record: time infinity, dose 30 mg/kg, route oral. Conditions: plasma.
A short description of series [13]: Oral bioavailability in C57 mouse at 30 mg/kg. Type of series: ADME, organism-based. Conditions: in vivo.
Series [14] can be described thus: Cmax in Sprague-Dawley rat at 30 mg/kg, po. It counts as ADME, organism-based. Conditions: in vivo. More on the design: dose 30 mg/kg, route oral.
The test system of series [15] is Rattus norvegicus. As to the kind of experiment: AUC (0 to infinity) in Sprague-Dawley rat at 30 mg/kg, po. It counts as ADME, organism-based, Plasma. More on the design: time infinity, dose 30 mg/kg, route oral. Conditions: in vivo.
Series [16] in a line: Cmax in C57 mouse at 30 mg/kg, po. Type of series: ADME, organism-based. More on the design: dose 30 mg/kg, route oral. Conditions: in vivo.
The subject of series [17] is Rattus norvegicus. The description is as §1. More on the design: time infinity, dose 3 mg/kg, route intravenous. Type of series: ADME, organism-based, Plasma. Conditions: in vivo.
In series [18] the test system is Rattus norvegicus. As to the kind of experiment: Oral bioavailability in Sprague-Dawley rat at 30 mg/kg. Conditions: in vivo. It counts as ADME, organism-based.
The nature of series [19]: Tmax in Sprague-Dawley rat 30 mg/kg, po. Also on record: dose 30 mg/kg, route oral. Conditions: in vivo. Type of series: ADME, organism-based.

Converted amounts (≈) assume the structure as drawn.

For `CC(C)OC(=O)C1=CN(C(=O)c2ccc(OCCCN3CCN(C)CC3)cc2)CC(C)(C)c2c1[nH]c1ccccc21`, in series [1], the solubility (thermodynamic) is 1140 µg/mL (≈ 2040 µM).
Take `CC(C)OC(=O)C1=CN(C(=O)c2ccc(OCCN3CCCCC3)cc2)CC(C)(C)c2c1[nH]c1ccccc21`: in series [1], the solubility (thermodynamic) came to 80 µg/mL (≈ 151 µM).
Turning to `CC(C)OC(=O)C1=CN(C(=O)c2ccc(OCCCN3CCOCC3)cc2)CC(C)(C)c2c1[nH]c1cc(F)ccc21`, the values for the peak concentration (Cmax) in [2] and in series [5] were 81 ng/mL and 68 ng/mL, respectively. In addition, the bioavailability in series [3] is 38%. The AUC(0-inf) in series [4] is 370 ng·h/mL; in series [6], 1720 ng·h/mL; in series [8] it was 960 ng·h/mL; in series [10], 361 ng·h/mL. In series [1], this compound came in with a thermodynamic solubility of 250 µg/mL (≈ 444 µM). Also, the Tmax turned out to be 2 h in [7] and 1 h in series [9].
On to `CC(C)OC(=O)C1=CN(C(=O)c2ccc(CN3CCOCC3)cc2)CC(C)(C)c2c1[nH]c1ccccc21`, for which the thermodynamic solubility in series [1] worked out at 245 µg/mL (≈ 488 µM).
The same measure, in the same setting: as for `CC(C)OC(=O)C1=CN(C(=O)c2cccc(OCCCN3CCN(C)CC3)c2)CC(C)(C)c2c1[nH]c1ccccc21`, the figure is 1740 µg/mL (≈ 3110 µM); as for `CC(C)OC(=O)C1=CN(C(=O)c2cccc(OCCN3CCOCC3)c2)CC(C)(C)c2c1[nH]c1ccccc21`, 155 µg/mL (≈ 292 µM); as for `CC(C)OC(=O)C1=CN(C(=O)c2ccc(OCCCN(C)C)cc2)CC(C)(C)c2c1[nH]c1ccccc21`, 2470 µg/mL (≈ 4900 µM).
In series [1], `CC(C)OC(=O)C1=CN(C(=O)c2cccc(OCCCN3CCCCC3)c2)CC(C)(C)c2c1[nH]c1ccccc21` gave a thermodynamic solubility of 1040 µg/mL (≈ 1920 µM). This solubility thermodynamic lies about 2.4-fold lower than the previous one.
On to `CC(C)OC(=O)C1=CN(C(=O)c2ccc(OCCN3CCOCC3)cc2)CC(C)(C)c2c1[nH]c1ccccc21`, for which, in series [1], the thermodynamic solubility was determined as 80 µg/mL (≈ 150 µM).
The same measure, in the same setting: to `CC(C)OC(=O)C1=CN(C(=O)c2ccc(OCCN3CCN(C)CC3)cc2)CC(C)(C)c2c1[nH]c1ccccc21` belongs 82 µg/mL (≈ 151 µM).
Same read-out and setting: to `CC(C)OC(=O)C1=CN(C(=O)c2ccc(OCCN3CCOCC3)cc2)CC(C)(C)c2c1[nH]c1cc(F)ccc21.Cl` belongs over 6000 µg/mL; to `CC(C)OC(=O)C1=CN(C(=O)c2ccc(OCCCN3CCOCC3)cc2)CC(C)(C)c2c1[nH]c1ccccc21`, 200 µg/mL (≈ 367 µM).
On the same count and under the same terms, to `CC(C)OC(=O)C1=CN(C(=O)c2ccc(OCCN(C)C)cc2)CC(C)(C)c2c1[nH]c1ccccc21` belongs 17 µg/mL (≈ 34.7 µM); to `CC(C)OC(=O)C1=CN(C(=O)c2ccc(CN3CCOCC3)cc2)CC(C)(C)c2c1[nH]c1cc(F)ccc21`, 380 µg/mL (≈ 731 µM); to `CC(C)OC(=O)C1=CN(C(=O)c2cccc(OCCCN3CCOCC3)c2)CC(C)(C)c2c1[nH]c1ccccc21`, 118 µg/mL (≈ 216 µM).
`CC(C)OC(=O)C1=CN(C(=O)c2ccc(OCCCN3CCCC3)cc2)CC(C)(C)c2c1[nH]c1ccccc21`: in [1], the thermodynamic solubility is 2330 µg/mL (≈ 4400 µM). Against the preceding compound, the solubility thermodynamic is about 20-fold higher.
The same measure, in the same setting: to `CC(C)OC(=O)C1=CN(C(=O)c2ccc(OCCN3CCCC3)cc2)CC(C)(C)c2c1[nH]c1ccccc21` belongs 24 µg/mL (≈ 46.5 µM).
With `CC(C)OC(=O)C1=CN(C(=O)c2ccc(OCCN3CCOCC3)cc2)CC(C)(C)c2c1[nH]c1cc(F)ccc21`, the figures for the Tmax in series [11] and in series [19] were 1 h and 1.7 h, respectively. Moreover, the AUC(0-inf) was 6700 ng·h/mL in series [12] and 1260 ng·h/mL in series [6]. The bioavailability in [13] is 53%. Moreover, the Cmax in series [14] amounted to 35 ng/mL; in series [16], 1130 ng/mL. In series [1], this compound showed a solubility (thermodynamic) of 280 µg/mL (≈ 509 µM). Moreover, the results for the AUC in the series on Rattus norvegicus [15] and in the series with Rattus norvegicus [17] were 193 ng·h/mL and 781 ng·h/mL, respectively. In addition, the F with Rattus norvegicus [18] is listed as 25%.
With `CC(C)OC(=O)C1=CN(C(=O)c2cccc(OCCN(C)C)c2)CC(C)(C)c2c1[nH]c1ccccc21`, in series [1], the thermodynamic solubility was determined as 536 µg/mL (≈ 1090 µM).
In [1], `CC(C)OC(=O)C1=CN(C(=O)c2ccc(OCCCN3CCOCC3)cc2)CC(C)(C)c2c1[nH]c1cc(F)ccc21.Cl` showed a thermodynamic solubility of 5920 µg/mL.
For `CC(C)OC(=O)C1=CN(C(=O)c2cccc(OCCN3CCCCC3)c2)CC(C)(C)c2c1[nH]c1ccccc21`, the solubility (thermodynamic) in series [1] was found to be 111 µg/mL (≈ 210 µM).
Same read-out and setting: to `CC(C)OC(=O)C1=CN(C(=O)c2ccc(OCCCN3CCCCC3)cc2)CC(C)(C)c2c1[nH]c1ccccc21` belongs 1220 µg/mL (≈ 2240 µM).
